Two molecules from US5869499A, “Benzyloxyquinuclidines as substance P antagonists” (Pfizer Inc, priority 1993, dated 1999) can be followed below.

Counter-ions that a name gives are not always drawn.

In the assay the test system is plasma protein extravasation in the ureter in response to capsaicin. Put plainly: Capsaicin-induced plasma extravasation test. The class given is in vivo, male Hartley guinea pigs. The conditions noted are these: dosed orally 1 h before capsaicin challenge, guinea pig ureter. The protocol: In this test, antiinflammatory activity is determined as the percent inhibition of plasma protein extravasation in the ureter of male Hartley quinea pigs (weighing 300-350 g) in response to the intraperitoneal injection of capsaicin into anesthetized animals. The compounds of the present invention are dissolved in 0.1% methyl cellulose/water and dosed orally 1 h before capsaicin challenge. Evans Blue dye (30 mg/kg) is administered intravenously 5 min before capsaicin challenge. The animals are killed 10 min after capsaicin injection and both right and left ureters are removed. The Evans Blue dye is extracted and determined […]. In the above tests, compounds are considered active if the difference in response between the drug-treated animals and a control group receiving the vehicle alone is statistically significant.

Broadly, the ED50 is the dose that gives a 50% effect, or the effect in half of the subjects. A higher ED50 goes with weaker potency. `FC(F)(F)c1cc(CO[C@H]2C3CCN(CC3)[C@H]2C(c2ccccc2)c2ccccc2)cc(C(F)(F)F)c1` [compound (x)] registered an ED50 (Cavia porcellus, po) of 2.4 mg/kg.
Take `O=C(O)[C@@H]1CN2CC[C@H]1[C@H](OCc1cc(C(F)(F)F)cc(C(F)(F)F)c1)[C@@H]2C(c1ccccc1)c1ccccc1` [Example 2, (3S,4R,5S,6S)-3,5-bis(trifluoromethyl)benzyoxy)-6-diphenylmethyl-5-(-1-azabicyclo[2.2.2]octane-3-carboxylic acid hydrochloride]: the “ED50 relative to ED50 of non-substituted compound (x)” value is listed as “more than 100 times lower”.
